Test results as given in PubChem BioAssay (NCI).
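Test compounds were applied to cells in 96-well plates for 48 hours at 5 doses. GI50 = concentration required for 50% inhibition of growth. TGI denotes the concentration required for complete inhibition of growth.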

Legend:
Experiment in all cases: NCI-60 cell line screen, 48 h
[1] = system: T-47D breast
[2] = system: SN12C renal
[3] = system: UACC-62 melanoma
[4] = system: MOLT-4 leukemia
[5] = system: HL-60(TB) leukemia
[6] = system: CCRF-CEM leukemia
[7] = system: UACC-257 melanoma
[8] = system: 786-0 renal
[9] = system: COLO 205 colon
[10] = system: SNB-75 CNS
[11] = system: A549 NSCLC
[12] = system: OVCAR-8 ovarian
[13] = system: HCC-2998 colon
[14] = system: CAKI-1 renal
[15] = system: TK-10 renal
[16] = system: SK-OV-3 ovarian
[17] = system: MALME-3M melanoma
[18] = system: PC-3 prostate
[19] = system: SF-539 CNS
[20] = system: RPMI-8226 leukemia
[21] = system: NCI-H226 lung
[22] = system: MDA-MB-231 breast
[23] = system: NCI-H23 lung
[24] = system: HCT-116 colon
[25] = system: OVCAR-4 ovarian
[26] = system: SK-MEL-28 melanoma
[27] = system: SK-MEL-5 melanoma
[28] = system: HCT-15 colon
[29] = system: A498 renal
[30] = system: HS 578T breast
[31] = system: SK-MEL-2 melanoma
[32] = system: ACHN renal
[33] = system: LOX IMVI melanoma
[34] = system: K-562 leukemia
[35] = system: SNB-19 CNS
[36] = system: SF-295 CNS
[37] = system: NCI-H460 lung
[38] = system: OVCAR-3 ovarian
[39] = system: SW-620 colon
[40] = system: NCI-H522 lung
[41] = system: OVCAR-5 ovarian
[42] = system: UO-31 renal
[43] = system: HOP-62 NSCLC
[44] = system: MCF7 breast
[45] = system: NCI/ADR-RES ovarian
[46] = system: U251 CNS
[47] = system: HT29 colon
[48] = system: SF-268 CNS
[49] = system: SR leukemia
[50] = system: MDA-MB-435
[51] = system: RXF 393 renal
[52] = system: KM12 colon
[53] = system: BT-549 breast
[54] = system: DU-145 prostate
[55] = system: EKVX NSCLC
[56] = system: HOP-92 NSCLC
[57] = system: IGROV1 ovarian
[58] = system: M14 melanoma

## COc1ccc2ncnc(Nc3ccc(OCc4ccccc4)cc3)c2c1
[1]
  GI50: 5.37 µM
  TGI: > 25 µM
[2]
  GI50: 9.14 µM
  TGI: > 25 µM
[3]
  GI50: 6.12 µM
  TGI: > 18.1 µM
[4]
  GI50: 7.56 µM
  TGI: > 23.5 µM
[5]
  GI50: 7.06 µM
  TGI: 16.8 µM
[6]
  GI50: 8.49 µM
  TGI: > 25 µM
[7]
  GI50: 7.47 µM
  TGI: > 25 µM
[8]
  GI50: 4.76 µM
  TGI: 10.9 µM
[9]
  GI50: 7.96 µM
  TGI: > 25 µM
[10]
  GI50: 9.78 µM
  TGI: > 25 µM
[11]
  GI50: 5.98 µM
  TGI: > 25 µM
[12]
  GI50: 8.39 µM
  TGI: > 25 µM
[13]
  GI50: 6.42 µM
  TGI: 18 µM
[14]
  GI50: 3.85 µM
  TGI: > 17.2 µM
[15]
  GI50: 3.68 µM
  TGI: 18.4 µM
[16]
  GI50: 3.41 µM
  TGI: > 23.6 µM
[17]
  GI50: 10.1 µM
  TGI: > 25 µM
[18]
  GI50: 8.54 µM
  TGI: > 25 µM
[19]
  GI50: 8.96 µM
  TGI: > 25 µM
[20]
  GI50: 7.58 µM
  TGI: > 25 µM
[21]
  GI50: 8.1 µM
  TGI: > 25 µM
[22]
  GI50: 4.6 µM
  TGI: 11.1 µM
[23]
  GI50: 8.48 µM
  TGI: > 25 µM
[24]
  GI50: 8.35 µM
  TGI: > 25 µM
[25]
  GI50: 7.38 µM
  TGI: > 25 µM
[26]
  GI50: 9.36 µM
  TGI: > 25 µM
[27]
  GI50: 4.62 µM
  TGI: 11.8 µM
[28]
  GI50: 5.61 µM
  TGI: > 25 µM
[29]
  GI50: 2.14 µM
  TGI: 14.1 µM
[30]
  GI50: 10.2 µM
  TGI: > 25 µM
[31]
  GI50: 9.97 µM
  TGI: > 25 µM
[32]
  GI50: 5.88 µM
  TGI: > 25 µM
[33]
  GI50: 7.85 µM
  TGI: > 25 µM
[34]
  GI50: 9.01 µM
  TGI: > 25 µM
[35]
  GI50: 9.78 µM
  TGI: > 25 µM
[36]
  GI50: 5.15 µM
  TGI: > 18.7 µM
[37]
  GI50: 7.58 µM
  TGI: > 25 µM
[38]
  GI50: 7.08 µM
  TGI: > 23.1 µM
[39]
  GI50: 9.04 µM
  TGI: > 25 µM
[40]
  GI50: 4.95 µM
  TGI: > 17.1 µM
[41]
  GI50: 6.57 µM
  TGI: > 22.6 µM
[42]
  GI50: 3.62 µM
  TGI: > 17 µM
[43]
  GI50: 10.6 µM
  TGI: > 25 µM
[44]
  GI50: 7.49 µM
  TGI: > 25 µM
[45]
  GI50: 7.56 µM
  TGI: > 25 µM
[46]
  GI50: 8.54 µM
  TGI: > 25 µM
[47]
  GI50: 6.54 µM
  TGI: > 25 µM
[48]
  GI50: 13.9 µM
  TGI: > 25 µM
[49]
  GI50: 11.6 µM
  TGI: > 25 µM
[50]
  GI50: 7.22 µM
  TGI: > 21.1 µM
[51]
  GI50: 4.59 µM
  TGI: 10.2 µM
[52]
  GI50: 8.67 µM
  TGI: > 25 µM
[53]
  GI50: 7.91 µM
  TGI: > 25 µM
[54]
  GI50: 8.2 µM
  TGI: > 25 µM
[55]
  GI50: 2.25 µM
  TGI: 12.9 µM
[56]
  GI50: 2.92 µM
  TGI: 16.9 µM
[57]
  GI50: 6.61 µM
  TGI: > 22.2 µM
[58]
  GI50: 8.48 µM
  TGI: > 25 µM
